This is an account of results in patent publication US9902696B2, “1,4-substituted piperidine derivatives” (Cephalon, Inc., priority 2015, dated 2018).

The structures appear in SMILES notation.

T1 sequence (P49327 whole entry): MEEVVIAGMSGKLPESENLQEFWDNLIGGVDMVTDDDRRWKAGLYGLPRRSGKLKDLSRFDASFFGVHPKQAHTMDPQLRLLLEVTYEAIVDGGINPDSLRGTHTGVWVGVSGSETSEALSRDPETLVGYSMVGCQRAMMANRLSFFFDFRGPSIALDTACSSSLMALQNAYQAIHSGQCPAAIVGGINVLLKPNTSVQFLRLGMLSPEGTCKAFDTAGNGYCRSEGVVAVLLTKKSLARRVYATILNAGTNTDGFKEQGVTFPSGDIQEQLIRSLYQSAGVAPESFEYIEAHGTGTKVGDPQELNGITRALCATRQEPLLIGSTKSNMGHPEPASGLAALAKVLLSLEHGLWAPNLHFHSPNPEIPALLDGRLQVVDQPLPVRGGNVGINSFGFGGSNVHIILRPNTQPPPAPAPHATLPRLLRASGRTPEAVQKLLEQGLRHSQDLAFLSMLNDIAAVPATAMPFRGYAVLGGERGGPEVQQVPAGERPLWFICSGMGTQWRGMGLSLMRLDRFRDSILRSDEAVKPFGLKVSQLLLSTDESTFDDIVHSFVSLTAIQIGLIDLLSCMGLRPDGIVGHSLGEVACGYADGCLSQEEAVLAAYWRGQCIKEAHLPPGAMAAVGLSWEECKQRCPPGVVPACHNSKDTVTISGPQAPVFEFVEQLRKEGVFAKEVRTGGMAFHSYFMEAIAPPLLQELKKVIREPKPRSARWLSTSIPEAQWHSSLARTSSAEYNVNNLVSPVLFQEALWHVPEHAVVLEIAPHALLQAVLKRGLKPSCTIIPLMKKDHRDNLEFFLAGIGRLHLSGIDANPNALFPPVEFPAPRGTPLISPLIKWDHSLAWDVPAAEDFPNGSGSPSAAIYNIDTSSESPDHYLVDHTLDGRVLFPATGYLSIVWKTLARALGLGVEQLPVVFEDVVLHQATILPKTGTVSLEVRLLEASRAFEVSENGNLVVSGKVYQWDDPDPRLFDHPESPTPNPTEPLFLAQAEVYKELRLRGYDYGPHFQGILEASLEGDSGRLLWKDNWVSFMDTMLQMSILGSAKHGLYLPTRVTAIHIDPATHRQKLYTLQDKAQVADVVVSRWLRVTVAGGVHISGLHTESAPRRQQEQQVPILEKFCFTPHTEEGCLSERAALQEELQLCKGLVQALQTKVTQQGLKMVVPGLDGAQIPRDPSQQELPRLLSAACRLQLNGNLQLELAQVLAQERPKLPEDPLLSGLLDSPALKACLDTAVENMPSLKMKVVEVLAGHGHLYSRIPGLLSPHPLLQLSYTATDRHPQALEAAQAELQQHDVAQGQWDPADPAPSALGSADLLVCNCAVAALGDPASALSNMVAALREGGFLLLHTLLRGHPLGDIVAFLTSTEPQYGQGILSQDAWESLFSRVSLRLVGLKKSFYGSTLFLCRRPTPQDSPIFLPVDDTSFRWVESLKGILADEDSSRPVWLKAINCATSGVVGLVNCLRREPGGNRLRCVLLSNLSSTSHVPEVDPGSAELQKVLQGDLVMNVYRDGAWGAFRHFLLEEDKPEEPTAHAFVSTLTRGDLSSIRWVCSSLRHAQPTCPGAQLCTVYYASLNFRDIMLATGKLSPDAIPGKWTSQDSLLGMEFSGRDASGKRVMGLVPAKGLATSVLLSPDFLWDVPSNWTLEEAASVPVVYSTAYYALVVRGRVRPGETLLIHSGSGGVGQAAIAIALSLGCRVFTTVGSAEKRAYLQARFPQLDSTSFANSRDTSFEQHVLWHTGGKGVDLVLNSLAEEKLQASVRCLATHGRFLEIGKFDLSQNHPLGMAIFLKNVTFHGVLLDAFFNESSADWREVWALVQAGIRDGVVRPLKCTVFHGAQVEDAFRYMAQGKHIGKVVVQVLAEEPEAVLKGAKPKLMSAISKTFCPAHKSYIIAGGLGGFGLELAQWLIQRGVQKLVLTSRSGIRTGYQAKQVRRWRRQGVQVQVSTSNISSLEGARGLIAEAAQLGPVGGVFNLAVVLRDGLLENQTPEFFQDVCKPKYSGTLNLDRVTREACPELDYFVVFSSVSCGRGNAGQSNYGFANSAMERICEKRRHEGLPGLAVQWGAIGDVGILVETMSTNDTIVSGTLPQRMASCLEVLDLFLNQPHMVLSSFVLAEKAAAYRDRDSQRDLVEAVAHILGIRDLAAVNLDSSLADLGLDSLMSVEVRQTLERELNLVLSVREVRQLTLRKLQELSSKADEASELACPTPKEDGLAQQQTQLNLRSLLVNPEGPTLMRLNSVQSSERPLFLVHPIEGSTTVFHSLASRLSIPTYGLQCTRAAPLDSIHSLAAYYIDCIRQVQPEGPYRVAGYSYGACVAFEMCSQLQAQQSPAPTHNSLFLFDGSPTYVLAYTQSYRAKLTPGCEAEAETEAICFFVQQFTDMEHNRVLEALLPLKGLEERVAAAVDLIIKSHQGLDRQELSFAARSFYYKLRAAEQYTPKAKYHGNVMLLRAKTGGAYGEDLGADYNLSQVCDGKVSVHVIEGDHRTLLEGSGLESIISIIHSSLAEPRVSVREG

This experiment has as its target T1, recombinant human baculovirus-expressed GST-tagged FASN (Homo sapiens, UniProt P49327).
T1 construct: GST
Kind of experiment: FASN enzyme activity assay, fluorescence-based detection of CoA with CPM. The experiment is classed as biochemical. Conditions: 5 nM FASN, 150 μM NADPH, 10 μM acetyl-CoA, 25 μM malonyl-CoA, 90 minutes incubation; read-out: IC50 data for Compounds of Formulae I-V/V(a): Activity. The source says: FASN Enzyme activity may be determined by detecting coenzyme A (CoA), a product of FASN-catalyzed synthesis of palmitate from acetyl-CoA and malonyl-CoA with NADPH as a cofactor. The assay is fluorescence-based and measures the interaction of free CoA with 7-diethylamino-3-(4′-malemimidylphenyl)-4-methylcoumarin (CPM; Life Technologies, CA) as described in Chung et al (2008). The coumarin derivative CPM contains a thiol-reactive maleimide that becomes fluorescent upon interaction with the sulfhydryl group of CoA.
For the example compounds described herein, the reaction was performed in 384-well low volume non-binding plates (Corning, N.Y.) using recombinant human baculovirus-expressed GST-tagged FASN. The 20-μL assay mixture contained 50 mM HEPES (pH 7.5), 5 nM FASN, 150 μM NADPH (Sigma, St. Louis, Mo.), 10 μM acetyl-CoA (Sigma), 25 μM malonyl-CoA (Sigma) and test compound [diluted in dimethyl sulfoxide (DMSO); 0.5% DMSO final in assay after 100 nL addition]. See, Chung et al.; “A fluorescence-based thiol quantification assay for ultra-high-throughput screening for inhibitors of coenzyme A production,” Assay Drug Dev Tech 2008; 6:361-374.
The reaction was initiated by adding malonyl-CoA, followed by incubation for 90 minutes at […]. A stock solution of the CPM reagent was prepared in DMSO at […] and stored at […]. To detect CoA produced in the FASN reaction, the CPM stock was diluted to […] in 70% ethanol and added at 4 μL/well to the assay plate. The reaction mixture was then incubated for 30 minutes. Fluorescence was measured using the EnVision™ 2102 multi-label plate reader (PerkinElmer, Waltham, Mass.) utilizing a general dual mirror, a 390 nm excitation filter and a 530 nm emission filter. Data analysis was performed using ActivityBase (IDBS, Guilford, UK). IC50 values were calculated by plotting the percent inhibition versus log 10 of the concentration of the compound, and fitting to the nonlinear regression sigmoidal dose-response (variable slope) equation in XLFit (IDBS).
With `CCC(=O)N1CCC(Oc2ccc(-c3ccc4ccccc4c3)cc2)CC1` [Example 10, 1-[4-(4-Naphthalen-2-yl-phenoxy)-piperidin-1-yl]-propan-1-one], the IC50 is 0.001 to 0.099 µM. Regarding `CC(C)C(=O)N1CCC(Oc2ccc(-c3ccc4ccccc4c3)cc2)CC1` [Example 11, 2-Methyl-1-[4-(4-naphthalen-2-yl-phenoxy)-piperidin-1-yl]-propan-1-one], the IC50 is 1 to 10 µM.

In the case of `CCC(=O)N1CCC(Oc2ccc(-c3cnc4cccnc4c3)cc2)CC1` [Example 12, 1-[4-(4-1,5-Naphthyridin-3-yl-phenoxy)-piperidin-1-yl]-propan-1-one], the IC50 fell in the range of 1 to 10 µM.

Regarding `CC(C)C(=O)N1CCC(Oc2ccc(-c3cnc4cccnc4c3)cc2)CC1` [Example 13, 2-Methyl-1-[4-(4-1,5-naphthyridin-3-yl-phenoxy)-piperidin-1-yl]-propan-1-one], the IC50 lay within 1 to 10 µM. On to `O=C(C1CC1)N1CCC(Oc2ccc(-c3cnc4cccnc4c3)cc2)CC1` [Example 14, Cyclopropyl-[4-(4-1,5-naphthyridin-3-yl-phenoxy)-piperidin-1-yl]-methanone], for which the IC50 was 1 to 10 µM. Regarding `COC(=O)N1CCC(Oc2ccc(-c3cnc4ccccc4c3)cc2F)CC1` [Example 15, 4-(2-Fluoro-4-quinolin-3-yl-phenoxy)-piperidine-1-carboxylic acid methyl ester], the IC50 fell in the range of 1 to 10 µM. The result for `CCC(=O)N1CCC(Oc2ccc(-c3cc4ccccc4nc3Cl)cc2)CC1` [Example 16, 1-{4-[4-(2-Chloroquinolin-3-yl)-phenoxy]-piperidin-1-yl}-propan-1-one] reads 1 to 10 µM; that for `O=C(C1CC1)N1CCC(Oc2ccc(-c3cc4ccccc4nc3Cl)cc2)CC1` [Example 17, {4-[4-(2-Chloroquinolin-3-yl)-phenoxy]-piperidin-1-yl}-cyclopropyl-methanone], 1 to 10 µM; that for `CCC(=O)N1CCC(Oc2ccc(-c3cc4ccccc4nc3OC)cc2)CC1` [Example 18, 1-{4-[4-(2-Methoxyquinolin-3-yl)-phenoxy]-piperidin-1-yl}-propan-1-one], 0.1 to 0.999 µM. As to `O=C(C1CC1)N1CCC(Oc2ccc(-c3cnc4c(c3)CCCC4)cc2)CC1` [Example 19, Cyclopropyl-{4-[4-(5,6,7,8-tetrahydro-quinolin-3-yl)-phenoxy]-piperidin-1-yl}-methanone], the IC50 lay in the range of 1 to 10 µM. With `O=C(C1CCC1)N1CCC(Oc2ccc(-c3cnc4c(c3)CCCC4)cc2)CC1` [Example 20, Cyclobutyl-{4-[4-(5,6,7,8-tetrahydroquinolin-3-yl)-phenoxy]-piperidin-1-yl}-methanone], the IC50 was in the range of 1 to 10 µM.

For `CCC(=O)N1CCC(Oc2ccc(-c3cnc4c(c3)CCCC4)cc2)CC1` [Example 21, 1-{4-[4-(5,6,7,8-Tetrahydroquinolin-3-yl)-phenoxy]-piperidin-1-yl}-propan-1-one], the IC50 was 1 to 10 µM. For the compound `CCC(=O)N1CCC(Oc2ccc(-c3ccc4cccnc4c3F)cc2)CC1` [Example 22], the IC50 lay in the range of 0.001 to 0.099 µM. On to `O=C(C1CC1)N1CCC(Oc2ccc(-c3ccc4cccnc4c3F)cc2)CC1` [Example 23, Cyclopropyl-{4-[4-(8-fluoroquinolin-7-yl)-phenoxy]-piperidin-1-yl}-methanone], for which the IC50 was 0.001 to 0.099 µM. The result for `O=C(C1CCC1)N1CCC(Oc2ccc(-c3ccc4cccnc4c3F)cc2)CC1` [Example 24, Cyclobutyl-{4-[4-(8-fluoroquinolin-7-yl)-phenoxy]-piperidin-1-yl}-methanone] reads 0.001 to 0.099 µM; that for `CCC(=O)N1CCC(Oc2ccc(-c3ccc4ccc(C)nc4c3F)cc2)CC1` [Example 25, 1-{4-[4-(8-Fluoro-2-methylquinolin-7-yl)-phenoxy]-piperidin-1-yl}-propan-1-one], 1 to 10 µM.

Consider `Cc1ccc2ccc(-c3ccc(OC4CCN(C(=O)C5CC5)CC4)cc3)c(F)c2n1` [Example 26, Cyclopropyl-{4-[4-(8-fluoro-2-methylquinolin-7-yl)-phenoxy]-piperidin-1-yl}-methanone], for which the IC50 fell in the range of 1 to 10 µM. In the case of `Cc1ccc2ccc(-c3ccc(OC4CCN(C(=O)C5CCC5)CC4)cc3)c(F)c2n1` [Example 27, Cyclobutyl-{4-[4-(8-fluoro-2-methylquinolin-7-yl)-phenoxy]-piperidin-1-yl}-methanone], the IC50 lay within 1 to 10 µM. For `O=C([C@H]1CCCO1)N1CCC(Oc2ccc(-c3cnc4cccc(F)c4c3)cc2)CC1` [Example 28, {4-[4-(5-Fluoroquinolin-3-yl)-phenoxy]-piperidin-1-yl}-(R)-tetrahydrofuran-2-yl-methanone], the IC50 was 0.001 to 0.099 µM.

Take `CCC(=O)N1CCC(Oc2ccc(-c3cnc4cccc(F)c4c3)cc2)CC1` [Example 29, 1-{4-[4-(5-Fluoroquinolin-3-yl)-phenoxy]-piperidin-1-yl}-propan-1-one]: the IC50 lay in the range of 0.001 to 0.099 µM.

Consider `O=C(C1CC1)N1CCC(Oc2ccc(-c3cnc4cccc(F)c4c3)cc2)CC1` [Example 30], for which the IC50 was 0.001 to 0.099 µM. The result for `O=C(C1CCC1)N1CCC(Oc2ccc(-c3cnc4cccc(F)c4c3)cc2)CC1` [Example 31, Cyclobutyl-{4-[4-(5-fluoroquinolin-3-yl)-phenoxy]-piperidin-1-yl}-methanone] reads 0.001 to 0.099 µM; that for `CCC(=O)N1CCC(Oc2ccc(-c3cnc4[nH]ccc4c3)cc2)CC1` [Example 32, 1-{4-[4-(1H-Pyrrolo[2,3-b]pyridin-5-yl)-phenoxy]-piperidin-1-yl}-propan-1-one], 0.1 to 0.999 µM. In the case of `O=C(C1CC1)N1CCC(Oc2ccc(-c3cnc4[nH]ccc4c3)cc2)CC1` [Example 33, Cyclopropyl-{4-[4-(1H-pyrrolo[2,3-b]pyridin-5-yl)-phenoxy]-piperidin-1-yl}-methanone], the IC50 lay in the range of 0.1 to 0.999 µM.

Regarding `COc1ccc2cc(-c3ccc(OC4CCN(C(=O)C5CC5)CC4)cc3)cnc2c1` [Example 34, Cyclopropyl-{4-[4-(7-methoxyquinolin-3-yl)-phenoxy]-piperidin-1-yl}-methanone], the IC50 lay in the range of 0.001 to 0.099 µM.

As for `CCC(=O)N1CCC(Oc2ccc(-c3cnc4cc(OC)ccc4c3)cc2)CC1` [Example 35, 1-{4-[4-(7-Methoxyquinolin-3-yl)-phenoxy]-piperidin-1-yl}-propan-1-one], the IC50 lay in the range of 0.001 to 0.099 µM. As for `CCC(=O)N1CCC(Oc2ccc(-c3ccc4cccnc4c3C)cc2)CC1` [Example 36], the IC50 fell in the range of 0.001 to 0.099 µM. The result for `Cc1c(-c2ccc(OC3CCN(C(=O)C4CC4)CC3)cc2)ccc2cccnc12` [Example 37, Cyclopropyl-{4-[4-(8-methylquinolin-7-yl)-phenoxy]-piperidin-1-yl}-methanone] reads 0.001 to 0.099 µM; that for `Cc1c(-c2ccc(OC3CCN(C(=O)C4CCC4)CC3)cc2)ccc2cccnc12` [Example 38], 0.001 to 0.099 µM; that for `O=C(C1CC1)N1CCC(Oc2ccc(-c3ccc4ccccc4n3)cc2)CC1` [Example 39, Cyclopropyl-[4-(4-quinolin-2-yl-phenoxy)-piperidin-1-yl]-methanone], 0.1 to 0.999 µM.

Regarding `CCC(=O)N1CCC(Oc2ccc(-c3ccc4ccccc4n3)cc2)CC1` [Example 40, 1-[4-(4-Quinolin-2-yl-phenoxy)-piperidin-1-yl]-propan-1-one], the IC50 lay within 0.1 to 0.999 µM. The result for `O=C(C1CCC1)N1CCC(Oc2ccc(-c3ccc4ccccc4n3)cc2)CC1` [Example 41, Cyclobutyl-[4-(4-quinolin-2-yl-phenoxy)-piperidin-1-yl]-methanone] reads 0.1 to 0.999 µM; that for `O=C([C@H]1CCCO1)N1CCC(Oc2ccc(-c3ccc4ccccc4n3)cc2)CC1` [Example 42, [4-(4-Quinolin-2-yl-phenoxy)-piperidin-1-yl]-(R)-tetrahydrofuran-2-yl-methanone], 0.001 to 0.099 µM; that for `CCC(=O)N1CCC(Oc2ccc(-c3cc4ccccc4cn3)cc2)CC1` [Example 43, 1-[4-(4-Isoquinolin-3-yl-phenoxy)-piperidin-1-yl]-propan-1-one], 0.001 to 0.099 µM. For the compound `O=C(C1CC1)N1CCC(Oc2ccc(-c3cc4ccccc4cn3)cc2)CC1` [Example 44, Cyclopropyl-[4-(4-isoquinolin-3-yl-phenoxy)-piperidin-1-yl]-methanone], the IC50 lay within 0.001 to 0.099 µM. Take `O=C(C1CCC1)N1CCC(Oc2ccc(-c3cc4ccccc4cn3)cc2)CC1` [Example 45, Cyclobutyl-[4-(4-isoquinolin-3-yl-phenoxy)-piperidin-1-yl]-methanone]: the IC50 is 0.001 to 0.099 µM. In the case of `O=C([C@H]1CCCO1)N1CCC(Oc2ccc(-c3cc4ccccc4cn3)cc2)CC1` [Example 46, [4-(4-Isoquinolin-3-yl-phenoxy)-piperidin-1-yl]-(R)-tetrahydrofuran-2-yl-methanone], the IC50 lay within 0.001 to 0.099 µM.
